Calls of active or inactive are those of the source. The calls are words filed in the database; no cut-off is given here.
How the values were obtained:
[1] = test system: HeLa; assay: Induction of DNA damage in human HeLa cells at 30 uM assessed as increase in gamma-H2AX level and measured by DAPI staining method relative to control; type: functional, cell-based
[2] = test system: MDA-MB-231; assay: Binding affinity to cysteine residue of protein in human MDA-MB-231 lysates at 30 uM incubated for 1 hr and measured in presence of cysteine-reactive reagent JW-RF-001 by SDS-PAGE analysis; type: subcellular
[3] = test system: MDA-MB-231; assay: Binding affinity to cysteine residues of protein in human MDA-MB-231 lysates at 30 uM incubated for 1 hr and measured by SDS-PAGE analysis; type: subcellular
[4] = test system: HeLa; assay: Downregulation of GEMIN2 expression in POLE3 knocked down human HeLa cells and measured after 6 hrs; type: functional, cell-based
[5] = test system: HeLa; assay: Downregulation of PEA15 expression in POLE3 knocked down human HeLa cells and measured after 6 hrs; type: functional, cell-based
[6] = test system: HeLa; assay: Induction of DNA damage in human HeLa cells at 30 uM assessed as increase in gamma-H2AX level in presence of 30 uM etoposide and measured by DAPI staining method relative to control; type: functional, cell-based
[7] = test system: HeLa; assay: Downregulation of DNA ligase 3 expression in POLE3 knocked down human HeLa cells and measured after 6 hrs; type: functional, cell-based
[8] = test system: HeLa; assay: Induction of DNA damage in POLE3 knocked down human HeLa cells at 30 uM assessed as increase in gamma-H2AX level in presence of 30 uM etoposide and measured by DAPI staining method relative to control; type: functional, cell-based
[9] = target: T1, DNA polymerase epsilon subunit 3 (Homo sapiens) (UniProt Q9NRF9); assay: Binding affinity towards wild-type POLE3 overexpressed in human 293T cells measured after 1 hr by SDS-PAGE analysis; type: cell-based; conditions: HEK293T
T1 sequence (whole entry): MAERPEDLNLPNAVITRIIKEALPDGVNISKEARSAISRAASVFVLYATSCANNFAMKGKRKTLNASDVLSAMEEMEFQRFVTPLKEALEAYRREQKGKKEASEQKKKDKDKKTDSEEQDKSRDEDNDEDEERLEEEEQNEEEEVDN

[10] = Upregulation of POLE expression in POLE3 knocked down human HeLa cells and measured as fold change after 6 hrs; type: functional
[11] = test system: HeLa; assay: Downregulation of GIT2 expression in POLE3 knocked down human HeLa cells and measured after 6 hrs; type: functional, cell-based

Activity [2] | Activity [3] | Kinact [9] | SMILES | Activity [1] | Activity [4] | Activity [5] | Activity [6] | Activity [7] | Activity [8] | fold change (FC) [10] | Activity [11]
– | – | – | COc1cc([C@@H]2c3cc4c(cc3[C@@H](O[C@@H]3O[C@@H]5CO[C@@H](C)O[C@H]5[C@H](O)[C@H]3O)[C@H]3COC(=O)[C@H]23)OCO4)cc(OC)c1O | Active | – | – | – | – | – | – | –
inactive | Active | – | C=C1C[C@@]2(C[C@H](C)[C@H]3CC=C(CN=[N+]=[N-])C(=O)[C@@H]3O2)OC1=O | – | – | – | – | – | – | – | –
– | – | 0.27 min⁻¹ | C=C1C[C@@]2(C[C@H](C)[C@H]3CC=C(C)C(=O)[C@@H]3O2)OC1=O | inactive | Active | Active | Active | Active | Active | 4 | Active
